Measurements taken from patent US11566007B2, “Ras inhibitors” (Revolution Medicines, Inc., priority 2019, dated 2023).
Like-named read-outs stand apart in the source and are kept apart here.

Assays:
[1] = biological target: KRAS WT (Homo sapiens (Human), UniProt P01116+P62937); experiment: Ras-Raf (BRAF RBD) disruption / FRET / MOA assay, KRAS WT; format: biochemical; details: read-out: IC50* KRAS WT FRET data
Outline: (§1)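 A 10-point, 3-fold dilution series topping at 30 μM final was incubated 3 h at 25° C with the Ras/cyclophilin A/BRAF RBD mixture.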

[2] = tested on: NCI-H358 cells (K-Ras G12C); experiment: Potency assay: pERK in NCI-H358 cells; format: cell-based, human; details: Homo sapiens, NCI-H358; H358 KRAS G12C; read-out: pERK EC50
Outline: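 Inhibition of cellular pERK after a 4 h treatment, detected by AlphaLISA or In-Cell Western. IC50 from a four-parameter concentration-response fit.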

[3] = biological target: NRAS G12C (Homo sapiens (Human), UniProt P01111+P62937, G12C); experiment: Ras-Raf (BRAF RBD) disruption / FRET / MOA assay, NRAS G12C; format: biochemical; details: read-out: IC50* NRAS G12C FRET data
NRAS G12C, sequence (P01111 whole entry G12C): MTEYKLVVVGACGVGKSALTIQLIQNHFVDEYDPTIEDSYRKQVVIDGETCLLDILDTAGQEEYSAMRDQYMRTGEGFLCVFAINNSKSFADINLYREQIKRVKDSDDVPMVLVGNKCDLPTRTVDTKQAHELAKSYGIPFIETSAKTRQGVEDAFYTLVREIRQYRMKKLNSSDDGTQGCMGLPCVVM
NRAS G12C, sequence (P62937 whole entry): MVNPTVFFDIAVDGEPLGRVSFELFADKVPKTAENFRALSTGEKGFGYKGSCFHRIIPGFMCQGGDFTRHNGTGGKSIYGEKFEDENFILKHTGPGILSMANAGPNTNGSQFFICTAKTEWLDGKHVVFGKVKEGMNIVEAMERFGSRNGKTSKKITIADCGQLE
Outline: as §1

[4] = biological target: KRAS G13D (Homo sapiens (Human), UniProt P01116+P62937, G13D); experiment: Ras-Raf (BRAF RBD) disruption / FRET / MOA assay, KRAS G13D; format: biochemical; details: read-out: IC50* KRAS G13D FRET data
KRAS G13D, sequence (P01116-2 other isoform, or with tags, fused parts or gaps G13D): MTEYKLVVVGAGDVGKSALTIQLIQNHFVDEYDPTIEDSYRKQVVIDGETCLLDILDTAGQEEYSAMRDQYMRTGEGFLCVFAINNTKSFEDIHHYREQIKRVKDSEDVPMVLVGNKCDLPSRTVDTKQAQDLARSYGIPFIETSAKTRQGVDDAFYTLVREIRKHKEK
KRAS G13D, sequence (P62937 whole entry): as the sequence (P62937 whole entry) above
Outline: as §1

[5] = biological target: KRAS G12S (Homo sapiens (Human), UniProt P01116+P62937, G12S); experiment: Ras-Raf (BRAF RBD) disruption / FRET / MOA assay, KRAS G12S; format: biochemical; details: Ras-Raf disruption/FRET/MOA assay; class symbols; read-out: KRAS G12S FRET data IC50
KRAS G12S, sequence (P01116-2 other isoform, or with tags, fused parts or gaps G12S): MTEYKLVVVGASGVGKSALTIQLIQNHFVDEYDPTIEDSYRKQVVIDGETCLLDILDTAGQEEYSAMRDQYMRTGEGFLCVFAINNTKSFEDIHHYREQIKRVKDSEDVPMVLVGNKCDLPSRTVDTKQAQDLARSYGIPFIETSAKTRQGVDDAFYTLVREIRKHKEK
KRAS G12S, sequence (P62937 whole entry): as the sequence (P62937 whole entry) above
Outline: as §1

[6] = biological target: KRAS G12D (Homo sapiens (Human), UniProt P01116+P62937, G12D); experiment: Ras-Raf (BRAF RBD) disruption / FRET / MOA assay, KRAS G12D; format: biochemical; details: Ras-Raf disruption/FRET/MOA assay; class symbols; read-out: KRAS G12D FRET data IC50
KRAS G12D, sequence (P01116-2 other isoform, or with tags, fused parts or gaps G12D): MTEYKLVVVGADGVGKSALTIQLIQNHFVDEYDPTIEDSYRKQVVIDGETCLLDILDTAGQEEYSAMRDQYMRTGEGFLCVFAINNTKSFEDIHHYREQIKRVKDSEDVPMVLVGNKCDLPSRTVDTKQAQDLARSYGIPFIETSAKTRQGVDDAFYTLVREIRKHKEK
KRAS G12D, sequence (P62937 whole entry): as the sequence (P62937 whole entry) above
Outline: as §1

[7] = tested on: NCI-H358 (K-Ras G12C); experiment: CellTiter-Glo cell viability assay, NCI-H358; format: cell-based, human; details: NCI-H358, 5-day treatment, class symbols, read-out: Additional H358 Cell Viability assay data (K-Ras G12C, IC50)
Outline: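 Compounds were dispensed directly onto K-Ras mutant cells and incubated until day 5, then plates were equilibrated to room temperature for about 30 minutes before CellTiter-Glo luminescence. Signals were normalized as (sample/average DMSO)*100 and fitted by four-parameter logistic fit.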

[8] = biological target: K-Ras G12C (Homo sapiens (Human), UniProt P01116+P62937, G12C); experiment: Ras-Raf (BRAF RBD) disruption / FRET / MOA assay, KRAS G12C; format: biochemical; details: KRAS G12C; Ras-Raf disruption/FRET/MOA assay; read-out: IC50* KRAS G12C FRET data
K-Ras G12C, sequence (P01116-2 other isoform, or with tags, fused parts or gaps G12C): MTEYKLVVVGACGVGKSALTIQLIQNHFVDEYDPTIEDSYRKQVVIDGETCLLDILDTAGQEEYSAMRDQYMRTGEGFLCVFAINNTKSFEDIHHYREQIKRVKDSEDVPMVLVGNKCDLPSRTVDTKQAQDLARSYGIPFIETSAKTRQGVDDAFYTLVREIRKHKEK
K-Ras G12C, sequence (P62937 whole entry): as the sequence (P62937 whole entry) above
Outline: as §1

[9] = biological target: KRAS G12V (Homo sapiens (Human), UniProt P01116+P62937, G12V); experiment: Ras-Raf (BRAF RBD) disruption / FRET / MOA assay, KRAS G12V; format: biochemical; details: read-out: IC50* KRAS G12V FRET data
KRAS G12V, sequence (P01116-2 other isoform, or with tags, fused parts or gaps G12V): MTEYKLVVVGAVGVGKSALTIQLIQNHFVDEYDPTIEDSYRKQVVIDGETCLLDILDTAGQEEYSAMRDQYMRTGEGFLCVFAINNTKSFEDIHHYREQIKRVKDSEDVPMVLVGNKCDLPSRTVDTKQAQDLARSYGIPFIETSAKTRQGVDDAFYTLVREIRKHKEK
KRAS G12V, sequence (P62937 whole entry): as the sequence (P62937 whole entry) above
Outline: as §1

[10] = biological target: K-Ras G13C (Homo sapiens (Human), UniProt P01116+P62937, G13C); experiment: Ras-Raf (BRAF RBD) disruption / FRET / MOA assay, KRAS G13C; format: biochemical; details: KRAS G13C; Ras-Raf disruption/FRET/MOA assay; read-out: IC50* KRAS G13C FRET data
K-Ras G13C, sequence (P01116-2 other isoform, or with tags, fused parts or gaps G13C): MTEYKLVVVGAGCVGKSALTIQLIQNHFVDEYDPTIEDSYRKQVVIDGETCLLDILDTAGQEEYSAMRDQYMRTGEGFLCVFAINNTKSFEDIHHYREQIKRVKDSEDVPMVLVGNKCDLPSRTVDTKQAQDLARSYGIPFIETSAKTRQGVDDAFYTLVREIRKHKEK
K-Ras G13C, sequence (P62937 whole entry): as the sequence (P62937 whole entry) above
Outline: as §1

KRAS WT, sequence (P01116-2 other isoform, or with tags, fused parts or gaps): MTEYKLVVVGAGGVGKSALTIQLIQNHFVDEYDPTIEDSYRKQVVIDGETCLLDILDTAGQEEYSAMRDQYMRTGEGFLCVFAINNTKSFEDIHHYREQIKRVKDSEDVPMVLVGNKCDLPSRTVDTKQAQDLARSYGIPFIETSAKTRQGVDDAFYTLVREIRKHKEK
KRAS WT, sequence (P62937 whole entry): as the sequence (P62937 whole entry) above

| IC50 [1] [nM] | EC50 [2] [nM] | IC50 [3] [nM] | IC50 [4] [nM] | IC50 [5] [nM] | IC50 [6] [nM] | IC50 ([7]; Homo sapiens, NCI-H358, 120 h) [nM] | IC50 [8] [nM] | IC50 [9] [nM] | IC50 [10] [nM] | SMILES | IC50 [7] [nM] |
| --- | --- | --- | --- | --- | --- | --- | --- | --- | --- | --- | --- |
| 1000 to 10000 | < 5000 | 100 to 1000 | 1000 to 10000 | 1000 to 10000 | > 10000 | 10 to 100 | 10 to 100 | 100 to 1000 | 100 to 1000 | CCn1c(-c2cccnc2COC)c2c3cc(ccc31)-c1cc(O)cc(c1)C[C@H](NC(=O)[C@H](C(C)C)N(C)C(=O)[C@H]1CCN(C(=O)C#CC3(N(C)C)CC3)C1)C(=O)N1CCC[C@H](N1)C(=O)OCC(C)(C)C2 [Example A238] | – |
| > 10000 | < 5000 | < 10 | > 10000 | > 10000 | > 10000 | < 10 | < 10 | > 10000 | 100 to 1000 | CCn1c(-c2cccnc2[C@H](C)OC)c2c3cc(ccc31)-c1csc(n1)C[C@H](NC(=O)[C@H](C(C)C)N1CCC3(CN(C(=O)C#CC(C)(C)N(C)C)C3)C1=O)C(=O)N1CCC[C@H](N1)C(=O)OCC(C)(C)C2 (atropisomer, axis not shown) [Example A323] | – |
| > 10000 | < 5000 | 1000 to 10000 | > 10000 | > 10000 | > 10000 | > 1000 | 1000 to 10000 | 1000 to 10000 | 1000 to 10000 | CCn1c(-c2cccnc2[C@H](C)OC)c2c3cc(ccc31)-c1cccc(c1)C[C@H](NC(=O)[C@H](C(C)C)N(C)C(=O)[C@H]1CCN(S(=O)(=O)C=C(C)C)C1)C(=O)N1CCC[C@H](N1)C(=O)OCC(C)(C)C2 (atropisomer, axis not shown) [Example A307] | – |
| 1000 to 10000 | < 5000 | < 10 | 1000 to 10000 | 1000 to 10000 | 1000 to 10000 | < 10 | < 10 | 100 to 1000 | 100 to 1000 | CCn1c(-c2cccnc2COC)c2c3cc(ccc31)-c1cc(O)cc(c1)C[C@H](NC(=O)[C@H](C(C)C)N(C)C(=O)[C@@H]1CCN(C(=O)C#CC(C)(C)N(C)C)C1)C(=O)N1CCC[C@H](N1)C(=O)OCC(C)(C)C2 [Example A162] | – |

| SMILES | IC50 [1] [nM] | EC50 [2] [nM] | IC50 [3] [nM] | IC50 [4] [nM] | IC50 [5] [nM] | IC50 [6] [nM] | IC50 ([7]; Homo sapiens, NCI-H358, 120 h) [nM] | IC50 [8] [nM] | IC50 [9] [nM] | IC50 [10] [nM] | IC50 [7] [nM] |
| --- | --- | --- | --- | --- | --- | --- | --- | --- | --- | --- | --- |
| C=CC(=O)N1CC[C@H](C(=O)N(C)[C@H](C(=O)N[C@H]2Cc3cccc(c3)-c3ccc4c(c3)c(c(-c3cc(C5=CCN(C)CC5)cnc3[C@H](C)OC)n4CC)CC(C)(C)COC(=O)[C@@H]3CCCN(N3)C2=O)C(C)C)C1 (atropisomer, axis not shown) [Example A513] | 1000 to 10000 | < 5000 | 10 to 100 | 1000 to 10000 | 1000 to 10000 | 1000 to 10000 | – | 10 to 100 | 1000 to 10000 | 100 to 1000 | < 10 |
| C=CC(=O)N1CC(C(=O)N(C)[C@H](C(=O)N[C@H]2Cc3cc(O)cc(c3)-c3ccc4c(c3)c(c(-c3cccnc3[C@H](C)OC)n4CC)CC(C)(C)COC(=O)[C@@H]3CCCN(N3)C2=O)C(C)C)C1 (atropisomer, axis not shown) [Example A256] | 10 to 100 | < 5000 | 10 to 100 | 100 to 1000 | 10 to 100 | 100 to 1000 | < 10 | < 10 | 100 to 1000 | 10 to 100 | – |
| CCn1c(-c2cccnc2[C@H](C)OC)c2c3cc(ccc31)-c1cccc(c1)C[C@H](NC(=O)[C@H](C(C)C)N(C)C(=O)[C@H]1CCN(C(=O)C#CC3(N(C)C)CCOC3)C1)C(=O)N1CCC[C@H](N1)C(=O)OCC(C)(C)C2 (stereo partly shown) [Example A533] | 1000 to 10000 | < 5000 | 10 to 100 | > 10000 | 1000 to 10000 | > 10000 | < 10 | 10 to 100 | 1000 to 10000 | 1000 to 10000 | – |
